# Results published in publication PMC12645083, “Microwave‐Enhanced Synthesis of 2‐Styrylquinoline‐4‐Carboxamides With Promising Anti‐Lymphoma Activity” (Archiv Der Pharmazie, 2025).
# What was measured:
# Format in all cases: cell-based, human
# VL51 [1] = test: Apoptosis assay, Annexin V/PI staining; conditions: 2 µM, 48 h
# Description: (§1) For apoptosis evaluation, cells were plated in 12‐well plates at 0.2 × 10⁶ cells/mL in 1 mL of complete medium. After 24 h, cells were treated with the indicated compound concentrations. After 48 h, cells were harvested, centrifuged, and stained with Annexin V‐FITC and propidium iodide (PI) using the Annexin‐V Fluos kit (Roche Diagnostics), following the manufacturer's instructions. Fluorescence was analyzed using a Coulter Cytomics FC500 flow cytometer (Beckman Coulter) with detection in the FL1 and FL3 channels, respectively.
# TOLEDO [2] = test: Apoptosis assay, Annexin V/PI staining; conditions: 2 µM, 48 h
# Description: as §1
# TOLEDO [3] = test: Cell-cycle analysis (flow cytometry); conditions: 2 µM, 48 h
# Description: Cells were plated in 12‐well plates at 0.2 × 10⁶ cells/mL in 1 mL of complete medium. After 24 h, cells were treated with the specified compound concentrations. […] Cells were then stained and processed as previously described. Data acquisition was performed using a Coulter Cytomics FC500 flow cytometer (Beckman Coulter).
# VL51 [4] = test: Mitochondrial membrane potential analysis (TMRE); conditions: 24 h of treatment
# Description: (§2) Cells were plated in 12‐well plates at 0.2 × 10⁶ cells/mL in 1 mL of complete medium. After 24 h, cells were treated with the indicated compound concentrations. Following a further 24‐h incubation, cells were stained with TMRE (Invitrogen, US) at 1 µM for 20 min. After washing with 1X PBS, fluorescence was detected using a CytoFLEX flow cytometer (Beckman Coulter) and analyzed with FlowJo software v.10.7.1.
# TOLEDO [5] = test: Mitochondrial membrane potential analysis (TMRE); conditions: 24 h of treatment
# Description: as §2
structure (smiles),measurement,setting,value
"O=C(Nc1ccc([N+](=O)[O-])cc1)c1cc(/C=C/c2ccccc2)nc2ccccc12 [4i, (E)-N-(4-nitrophenyl)-2-styrylquinoline-4-carboxamide]",Mode of cell death (Annexin V/PI),VL51 [1],induced late apoptosis and necrosis
same,Mode of cell death (Annexin V/PI),TOLEDO [2],induced late apoptosis and necrosis
same,Cell-cycle distribution,TOLEDO [3],significant accumulation of cells in the G₂/M phase
same,Mitochondrial membrane depolarization (TMRE-negative cells),VL51 [4],increased percentage of TMRE‐negative cells
same,Mitochondrial membrane depolarization (TMRE-negative cells),TOLEDO [5],increased percentage of TMRE‐negative cells
